Values quoted from earlier work as cited in patent publication US7732483B2, “DNA-PK inhibitors” (Kudos Pharmaceuticals Limited, priority 2004, dated 2010).

Tested on: cells
Conditions: Rosenzweig et al. 1999

O=c1cc(N2CCOCC2)oc2c(-c3ccccc3)cccc12 [LY294002]
sensitisation of cells to the effects of IR: weakly sensitise cells to the effects of IR
